Data on two molecules can be found in patent US7655225B2, “Methods of expanding stem and progenitor cells and expanded cell populations obtained thereby” (Gamida Cell, Ltd., priority 2002, dated 2010).

SMILES strings stand for the structures.

The assay relates to CD34+ cells. Put plainly: Ex vivo expansion of purified CD34+ cells in liquid culture: cell enumeration and FACS of subsets. The note with it: for density of CD34+CD38− cells, fold higher than untreated control / density of CD34+ Lin− progenitor cells, fold higher than untreated control: with IL-3; for density of CD34+CD38− cells, fold higher than untreated control: FIG. 6b; for density of CD34+ Lin− progenitor cells, fold higher than untreated control: FIG. 6c. The assay is classed as cell-based, human. The procedure:
Sample collection and processing: Samples were obtained from umbilical human cord blood and processed within 12 hours. The blood cells were mixed with 3% Gelatin (Gigma, St. Louis, Mo.) and allowed to sediment for 30 minutes to remove most red blood cells. The leukocyte-rich fraction was harvested, layered on Ficoll-Hypaque (density 1.077 gram/ml; Sigma) and centrifuged at 400 g for 30 minutes at room temperature. The mononuclear cells in the interface layer were then collected, washed three times in phosphate-buffered saline (PBS; Biological Industries), and re-suspended in PBS solution which contains 1% bovine serum albumin (BSA; Sigma). The cells were then incubated at 4° C. for 30 minutes with murine monoclonal anti CD34^+ antibody (0.5 μg/10^6 mononuclear cells) and were thereafter isolated using two cycles of immuno-magnetic separation using the miniMACS CD34^+ Progenitor Cell Isolation Kit (Miltenyi-Biotec, Auburn, Calif.) according to the manufacturer's recommendations. The purity of the CD34^+ cells obtained ranged between 95% and 98%, based on Flow Cytometry evaluation (see below). Ex vivo expansion of progenitor cells: Enriched CD34^+ cell fractions were cultures in 24-well Costar Cell Culture Clusters (Corning Inc., Corning, N.Y.) or in Culture Bags (American Fluoroseal Corp.) with alpha minimal essential medium supplemented with 10% fetal bovine serum (FBS, Biological Industries), at about 1-3×10^4 cells/ml medium. The media were further supplemented with the following human recombinant cytokines (all obtained from Perpo Tech, Inc., Rocky Hill, N.J.): Thrombopoietin (TPO), 50 ng/ml; interleukin 6 (IL-6), 50 ng/ml; FLT-3 ligand, 50 ng/ml; and IL-3, 20 ng/ml. The cultures were incubated at 37° C. in an atmosphere of 5% CO2 in air with extra humidity. At weekly intervals cell cultures were semi-depopulated and supplemented with fresh medium containing the cytokines. Following different incubation periods, the cells were harvested, stained with trypan blue and enumerated. The total cell counts, numbers of CD34^+ cells and subsets thereof, and the number of colony-forming cells (CFU) are presented herein as cumulative numbers, with the assumption that the cultures had not been passaged, namely, the numbers of cells per ml were multiplied by the number of passages performed. Surface antigen analysis: At different time intervals, the cultured cells were harvested, washed with a PBS solution containing 1% BSA and 0.1% sodium azide (Sigma), and stained, at 4° C. for 60 minutes, with FITC-labeled anti CD45 monoclonal antibody and either PE-labeled anti CD34 (HPCA-2) monoclonal or PE-labeled control mouse Ig (all from Immunoquality Products, the Netherlands). The cells were then washed with the same PBS solution and were analyzed by a flow cytometer, as described hereinafter. Flow cytometry analysis: Cells were analyzed and sorted using FACS caliber flow cytometer (Becton-Dickinson, Immunofluorometry systems, Mountain View, Calif.). Cells were passed at a rate of 1,000 cells/second through a 70 μm nozzle, using a saline sheath fluid. A 488 nm argon laser beam at 250 mW served as the light source for excitation. Fluorescence emission of ten thousand cells was measured using a logarithmic amplification and analyzed using CellQuest software. Determination of the density of stem and progenitor subset populations following expansion: Following an incubation period, the CD34^+ cells were re-selected using miniMACS Miltenyi kit. The purity of the positive fraction of selected CD34^+ cells was confirmed by FACS analysis as well as by cell morphology analysis. The density of CD34^+ cells, in proportion (percentage) to total cells, was determined directly via FACS analysis. The densities of CD34^+ subset populations were determined from the purified CD34^+ fraction. Re-selected CD34^+ cells were stained with lineage specific antigens followed by FACS analysis to determine the percentage of the subset populations within the total number of CD34^+ cells. […]

Turning to `NCCNCCNCCNCCN.[Cl-].[Cl-].[Cu+2]` [TEPA-Cu chelate, tetraethylenepentamine-copper chelate], the “density of CD34+CD38− cells, fold higher than untreated control” value amounted to 5 fold (20 μM, two weeks); 15 fold (40 μM, two weeks); 15 fold (50 μM, two weeks). In addition, the “density of CD34+ Lin− progenitor cells, fold higher than untreated control” value is reported as 3 fold (20 μM, two weeks); 5 fold (40 μM, two weeks); 4 fold (50 μM, two weeks). The “number of CD34+ cells vs untreated (cytokines only) culture” value (2 and 3 weeks, 30 μM or 40 μM, FIG. 5a) is listed as “remained almost unchanged”. The “number of CD34+CD38− cells, fold higher than untreated control” value (3 weeks, 30 μM or 40 μM, FIG. 5b) was 6-7 fold. Under “3 weeks, 30 μM or 40 μM, FIG. 5c”, the “number of CD34+ Lin− cells, fold higher than untreated control” value was 4-6.5 fold. Further, the “density of CD34+ stem cells, expansion” value (three weeks, 40 μM, TPO, FLT-3, IL-6, SCF, untreated 40 fold, FIG. 4a) is given as 50 fold. Also, the “density of CD34+CD38− progenitor cells, expansion” value (three weeks, 40 μM, untreated 5 fold, FIG. 4b) is 250 fold. The “density of CD34+ Lin− progenitor cells, expansion” value (three weeks, 40 μM, untreated 10 fold, FIG. 4c) came out at 110 fold. The “more total cells as compared with the untreated control” value (three weeks, 50 μM, FIG. 8a) was “ca. 25%”. Besides, the “density of CD34+ CD38− subset cells vs untreated control” value (three weeks, 50 μM, FIG. 8c) is “substantially higher”. Where the note is “three weeks, 50 μM, FIG. 8d”, the “density of CD34+ Lin− subset cells vs untreated control” value is “substantially higher”. Moreover, the “CD34+ cell expansion vs untreated control” value (two weeks culture, 40 μM, FIGS. 11a-b) is reported as “did not significantly affect”. The “density of CD34+CD61+ progenitor cells, fold vs untreated control” value (two weeks, 40 μM, FIG. 7a) is on record as “ca. 2 fold”. Besides, the “density of CD34+CD41+ progenitor cells, fold vs untreated control” value (two weeks, 40 μM, FIG. 7b) is recorded as about 3 fold. In addition, the “density of CD34+ stem cells, fold higher than untreated control” value (two weeks, 20, 40 and 50 μM, TPO, FLT-3, IL-6, IL-3, FIG. 6a) was “ca. 1.5 fold”.

On to `NCCNCCNCCNCCN` [TEPA chelator, tetraethylenepentamine], for which the “density of CD34+ CD38− subset cells vs untreated or TEPA-Cu treatment” value (three weeks, 5 μM, FIG. 12b) is “substantially increased”. The “density of CD34+ Lin− subset cells vs untreated or TEPA-Cu treatment” value (three weeks, 5 μM, FIG. 12c) is recorded as “substantially increased”. Also, under “two and three weeks, 5 μM, FIG. 13b”, the “density of CD34+CD38− cells vs untreated or TEPA-Cu treatment” value is reported as “substantially higher”. Moreover, the “density of CD34+ Lin− cells vs untreated or TEPA-Cu treatment” value (two and three weeks, 5 μM, FIG. 13c) is reported as “substantially higher”. Besides, the “density of CD34+ cells vs untreated control” value (two weeks culture, 5 μM, FIGS. 11a-b) is reported as “slightly decreased”.
